# Reference: patent US20240228950A1, “MICROPATTERNED 3D HYDROGEL MICROARRAY IN FLUIDIC CHANNELS FOR SPHEROID-IN-GEL CULTURE” (NANYANG TECHNOLOGICAL UNIVERSITY, priority 2021, published 2024)
# Tests used:
# Assay type in all cases: cell-based, human
# [1] = tested on: HUVEC endothelial barrier; assay: Endothelial barrier integrity study (FITC-dextran 70 kDa diffusion into hydrogel island); conditions: HUVEC treated with 100 and 500 nM for 3 days; 60 min dextran incubation
# Procedure: To assess the endothelial barrier integrity after drug treatment in the spheroid-in-gel chip, Collagen I (3 mg/mL) and HUVEC were seeded into the chip as described in example 2C. Sub-confluent HUVEC were treated with Paclitaxel (100 and 500 nM) and cultured for 3 days prior to the barrier permeability test. Fluorescence images were taken before and after 1 hr incubation with 10 μg/mL 70 kDa dextran conjugated with fluorescein isothiocyanate (FITC, Sigma Aldrich, St. Louis, MO, USA) loaded in the fluidic channels. Fluorescence intensities within the hydrogel island were expressed as the fold change (time 60 min over 0 min) and normalized to the untreated control.
# MCF-7 spheroids = assay: Live/dead assay (Calcein-AM/PI) of spheroids-in-gel after drug treatment; conditions: 3 days treatment
# Procedure: For spheroid-in-gel culture on the microarray chip, the PDMS surface was made hydrophilic by a 1-min plasma treatment using a plasma cleaner (PDC-002, Harrick Plasma Inc, Ithaca, NY, USA) to ensure even spreading of hydrogel onto the surface of the island. MCF-7 cells were dissociated and resuspended to a concentration of 1.7 million per mL. Collagen I was added to the suspension at 20 g/mL to enhance spheroid formation. MCF-7 suspension was loaded onto each island (3 L per island), following which the PDMS chip was inverted on top of a water reservoir for a hanging drop culture. […] The chip was maintained 37 °C for 2 days to allow for spheroid formation. […] Upon spheroid formation, the chip was subjected to media evaporation in the 37° C. incubator, following which collagen I (3 mg/mL) or Matrigel (4 mg/mL, Corning. NY, USA) was loaded onto each island (2 L per island) for in-place encapsulation of the spheroid. The chip was incubated at 37° C. for 30 min to allow for gelation of collagen and Matrigel, following which DMEM with 10% FBS was added into the fluidic channel. For co-culture with HUVEC, the channel was coated with polydopamine (1 mg/mL) for 30 min at 37° ° C. to facilitate HUVEC adhesion and growth. The polydopamine solution was prepared by dissolving dopamine hydrochloride (Sigma Aldrich, St. Louis, MO, USA) in Tris-HCl buffer, pH 8.5. The channel was washed with 1× Phosphate Buffer Saline (PBS) three times, following which a suspension of HUVEC (1.5 million/mL) was loaded into the channel and allowed to grow for 2 days to reach confluency. The HUVEC were cultivated under static conditions. […] The cells/spheroids were then imaged using a fluorescence microscope (Nikon Eclipse Ti, Melville, NY, USA). […] Fluorescence intensity of Calcein-AM and PI was analyzed using ImageJ and calculated according to equation (1) below. […] Spheroid area is determined by Hoechst staining. […] The same set of imaging parameters including exposure time and focal plane was used when acquiring the images to minimize inaccuracies in the fluorescence intensity.
# HUVEC = assay: Live/dead assay (Calcein-AM/PI) of endothelial cells co-cultured with spheroids after drug treatment; conditions: spheroid co-cultured with HUVEC, 3 days treatment
# Procedure: The chip was incubated at 37° C. for 30 min to allow for gelation of collagen and Matrigel, following which DMEM with 10% FBS was added into the fluidic channel. For co-culture with HUVEC, the channel was coated with polydopamine (1 mg/mL) for 30 min at 37° ° C. to facilitate HUVEC adhesion and growth. The polydopamine solution was prepared by dissolving dopamine hydrochloride (Sigma Aldrich, St. Louis, MO, USA) in Tris-HCl buffer, pH 8.5. The channel was washed with 1× Phosphate Buffer Saline (PBS) three times, following which a suspension of HUVEC (1.5 million/mL) was loaded into the channel and allowed to grow for 2 days to reach confluency. The HUVEC were cultivated under static conditions.
# Following that, the cells were stained with VE-Cadherin rabbit anti-human CD144 primary antibody (10 μg/mL, Enzo, Farmingdale, NY, USA) overnight at 4° C. On the next day, the cells were rinsed with 0.1% BSA in PBS three times, and fluorescently labeled with AlexaFluor 488 goat anti-rabbit secondary antibody (20 μg/mL, Life Technologies, Carlsbad, CA, USA) for 4 hr at room temperature. […]
# The cells/spheroids were then imaged using a fluorescence microscope (Nikon Eclipse Ti, Melville, NY, USA). […] Fluorescence intensity of Calcein-AM and PI was analyzed using ImageJ and calculated according to equation (1) below.
compound,measurement,setting,value
CC(=O)O[C@H]1C(=O)[C@@]2(C)[C@H]([C@H](OC(=O)c3ccccc3)[C@]3(O)C[C@H](OC(=O)[C@H](O)[C@@H](NC(=O)c4ccccc4)c4ccccc4)C(C)=C1C3(C)C)[C@]1(OC(C)=O)CO[C@@H]1C[C@@H]2O [Paclitaxel],Endothelial barrier integrity based on diffusion of FITC-Dextran 70 kDa into the hydrogel islands,[1],impaired the endothelial barrier integrity
same,MCF-7 death by live/dead staining (Calcein-AM/PI),"MCF-7 spheroids; mono-cultured spheroids, PTX 1, 100, 500 nM",higher MCF-7 death with increasing drug concentration
same,"PI intensity of drug-treated spheroids, mono-culture versus co-culture","MCF-7 spheroids; with or without HUVEC co-culture, PTX 1, 100, 500 nM",negligible differences in PI intensity
same,"Spheroid Calcein-AM intensity (survival), co-culture versus mono-culture","MCF-7 spheroids; with or without HUVEC co-culture, normalized to untreated group","trend of better survival of spheroids in co-cultures as compared to mono-culture, although no significant difference was observed"
same,EC death by live/dead staining (Calcein-AM/PI),HUVEC,higher EC death
